Reference: patent US20230150974A1 (Foghorn Therapeutics Inc., priority 2020, published 2023)

Tests used:
HiBiT-BRM = target: T1, HiBiT-BRM (Homo sapiens, UniProt P51531); assay: HiBiT-BRM cell-based degradation assay (Nano-Glo HiBiT Lytic Detection); conditions: HeLa cells expressing HiBiT-BRM, 24 h; for DC50: read-out: BRM HiBit Degradation IC50
T1 construct: expressed in transfected cells
Method in brief: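 HeLa cells stably expressing HiBiT-tagged BRM were treated for 24 h, then lysed with LgBiT-containing Nano-Glo reagent and luminescence read. % degradation scaled between DMSO (high control) and 2 μM reference BRM/BRG1 degrader (low control).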

HiBit-BRG1 = target: T2, HiBit-BRG1 (Homo sapiens, UniProt P51532); assay: HiBit-BRG1 cell-based degradation assay (Nano-Glo HiBiT Lytic Detection); conditions: HeLa cells expressing HiBit-BRG1 and LgBit, 24 h; for DC50: read-out: BRG1 HiBit Degradation IC50; for Dmax: read-out: BRG1 HiBit Degradation Maximum (%)
T2 construct: expressed in transfected cells
T2 sequence (P51532 whole entry): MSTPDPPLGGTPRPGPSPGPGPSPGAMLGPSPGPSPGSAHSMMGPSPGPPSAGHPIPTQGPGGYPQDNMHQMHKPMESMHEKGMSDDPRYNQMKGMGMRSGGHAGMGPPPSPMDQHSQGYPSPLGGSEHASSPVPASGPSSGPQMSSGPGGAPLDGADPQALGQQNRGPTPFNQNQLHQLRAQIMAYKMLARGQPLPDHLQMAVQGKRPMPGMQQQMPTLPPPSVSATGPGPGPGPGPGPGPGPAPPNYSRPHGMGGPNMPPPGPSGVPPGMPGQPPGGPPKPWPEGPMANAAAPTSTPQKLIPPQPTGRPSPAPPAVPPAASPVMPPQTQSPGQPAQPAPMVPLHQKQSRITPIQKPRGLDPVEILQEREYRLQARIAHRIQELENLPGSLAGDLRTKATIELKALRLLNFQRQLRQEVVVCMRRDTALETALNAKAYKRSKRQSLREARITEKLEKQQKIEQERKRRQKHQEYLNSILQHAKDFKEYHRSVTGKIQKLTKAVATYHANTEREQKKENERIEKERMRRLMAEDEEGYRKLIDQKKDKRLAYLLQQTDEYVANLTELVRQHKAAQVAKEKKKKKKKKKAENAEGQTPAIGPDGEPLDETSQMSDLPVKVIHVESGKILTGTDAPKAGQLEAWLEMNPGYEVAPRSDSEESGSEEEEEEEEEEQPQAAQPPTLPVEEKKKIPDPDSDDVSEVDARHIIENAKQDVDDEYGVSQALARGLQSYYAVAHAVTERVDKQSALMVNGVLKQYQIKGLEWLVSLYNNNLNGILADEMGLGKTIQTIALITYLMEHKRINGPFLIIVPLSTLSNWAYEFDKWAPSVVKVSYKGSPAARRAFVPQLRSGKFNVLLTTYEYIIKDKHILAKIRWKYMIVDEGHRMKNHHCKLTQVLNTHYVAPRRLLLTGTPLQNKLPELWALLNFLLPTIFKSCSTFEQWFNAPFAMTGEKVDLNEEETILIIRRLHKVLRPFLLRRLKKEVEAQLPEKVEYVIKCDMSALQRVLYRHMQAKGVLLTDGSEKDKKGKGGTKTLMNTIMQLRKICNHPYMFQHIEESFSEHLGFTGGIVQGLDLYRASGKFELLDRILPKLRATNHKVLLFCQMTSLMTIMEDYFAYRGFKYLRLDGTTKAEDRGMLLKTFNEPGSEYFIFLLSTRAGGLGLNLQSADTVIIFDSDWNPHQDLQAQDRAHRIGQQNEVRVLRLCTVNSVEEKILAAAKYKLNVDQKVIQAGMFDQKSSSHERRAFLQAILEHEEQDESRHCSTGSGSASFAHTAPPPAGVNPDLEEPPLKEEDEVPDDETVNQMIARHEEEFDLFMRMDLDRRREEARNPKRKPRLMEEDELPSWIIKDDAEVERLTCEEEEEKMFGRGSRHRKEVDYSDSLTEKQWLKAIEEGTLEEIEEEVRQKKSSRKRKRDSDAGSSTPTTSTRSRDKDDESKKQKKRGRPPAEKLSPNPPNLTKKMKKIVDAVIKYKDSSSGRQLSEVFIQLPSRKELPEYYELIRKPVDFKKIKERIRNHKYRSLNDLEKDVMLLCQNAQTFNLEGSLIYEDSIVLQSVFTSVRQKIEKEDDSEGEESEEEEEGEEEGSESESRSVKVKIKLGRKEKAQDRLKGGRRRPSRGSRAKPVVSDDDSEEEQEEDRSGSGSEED
Method in brief: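 Percent degradation derived from lytic HiBiT signal, normalized to DMSO-treated cells and to cells given 2 μM of a known BRM/BRG1 degrader. The HeLa line stably expressed HiBit-BRG1 and LgBit; treatment lasted 24 h at 5000 cells per well.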

T1 sequence (P51531 whole entry): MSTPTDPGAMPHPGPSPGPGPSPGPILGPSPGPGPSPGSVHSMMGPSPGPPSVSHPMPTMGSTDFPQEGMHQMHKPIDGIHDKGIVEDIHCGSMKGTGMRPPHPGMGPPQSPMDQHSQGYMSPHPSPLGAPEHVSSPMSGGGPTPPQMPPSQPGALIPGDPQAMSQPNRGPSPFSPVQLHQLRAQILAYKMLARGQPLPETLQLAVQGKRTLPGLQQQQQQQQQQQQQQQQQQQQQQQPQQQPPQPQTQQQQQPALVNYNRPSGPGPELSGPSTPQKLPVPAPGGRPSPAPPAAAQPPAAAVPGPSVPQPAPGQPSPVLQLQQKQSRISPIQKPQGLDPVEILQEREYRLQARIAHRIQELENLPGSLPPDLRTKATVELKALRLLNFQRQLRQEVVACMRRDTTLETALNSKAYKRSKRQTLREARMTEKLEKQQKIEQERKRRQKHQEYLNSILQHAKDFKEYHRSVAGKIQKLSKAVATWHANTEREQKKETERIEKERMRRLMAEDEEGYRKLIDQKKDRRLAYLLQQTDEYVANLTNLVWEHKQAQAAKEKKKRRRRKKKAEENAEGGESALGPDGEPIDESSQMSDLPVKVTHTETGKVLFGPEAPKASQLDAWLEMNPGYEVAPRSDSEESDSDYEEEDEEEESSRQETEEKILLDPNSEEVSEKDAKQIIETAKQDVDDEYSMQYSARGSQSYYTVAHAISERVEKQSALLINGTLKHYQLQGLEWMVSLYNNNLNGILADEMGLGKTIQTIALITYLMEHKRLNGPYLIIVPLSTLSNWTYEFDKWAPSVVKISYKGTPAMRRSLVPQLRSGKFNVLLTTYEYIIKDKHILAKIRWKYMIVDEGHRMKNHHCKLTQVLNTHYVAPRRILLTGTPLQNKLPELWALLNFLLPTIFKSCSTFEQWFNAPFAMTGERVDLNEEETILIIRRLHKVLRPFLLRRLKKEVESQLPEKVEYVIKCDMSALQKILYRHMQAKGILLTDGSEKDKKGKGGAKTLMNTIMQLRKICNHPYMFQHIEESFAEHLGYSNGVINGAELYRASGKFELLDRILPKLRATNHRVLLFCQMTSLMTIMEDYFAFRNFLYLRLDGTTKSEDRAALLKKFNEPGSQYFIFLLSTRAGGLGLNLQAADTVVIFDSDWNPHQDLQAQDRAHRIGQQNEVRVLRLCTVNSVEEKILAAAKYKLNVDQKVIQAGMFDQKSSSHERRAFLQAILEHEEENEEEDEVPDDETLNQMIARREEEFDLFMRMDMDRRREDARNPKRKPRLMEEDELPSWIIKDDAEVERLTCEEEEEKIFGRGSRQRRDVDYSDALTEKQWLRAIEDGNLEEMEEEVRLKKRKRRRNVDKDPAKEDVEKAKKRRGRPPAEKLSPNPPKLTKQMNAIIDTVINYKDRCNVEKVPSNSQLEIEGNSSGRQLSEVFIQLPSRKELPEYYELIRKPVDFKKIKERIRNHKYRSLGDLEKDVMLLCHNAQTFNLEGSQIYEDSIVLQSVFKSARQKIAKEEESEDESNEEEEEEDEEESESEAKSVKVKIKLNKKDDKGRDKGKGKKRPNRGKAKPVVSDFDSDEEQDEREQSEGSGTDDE

| Compound | BRM HiBit Degradation Maximum (%) (HiBiT-BRM) | DC50 (HiBiT-BRM) [nM] | DC50 (HiBit-BRG1) [nM] | Dmax (HiBit-BRG1) [%] |
| --- | --- | --- | --- | --- |
| Cc1ncsc1-c1ccc([C@H](C)NC(=O)[C@@H]2C[C@@H](O)CN2C(=O)[C@@H](c2cc(OCCN3C[C@H]4CC[C@@H](C3)N4C(=O)c3ccc(CCOc4cc(-c5ccccc5O)nnc4N)cc3)no2)C(C)C)cc1 [Compound 220, (2S,4R)-1-((2R)-2-(3-(2-(8-(4-(2-((3-amino-6-(2-hydroxyphenyl)pyridazin-4-yl)oxy)ethyl)benzoyl)-3,8-diazabicyclo[3.2.1]octan-3-yl)ethoxy)isoxazol-5-yl)-3-methylbutanoyl)-4-hydroxy-N-((S)-1-(4-(4-methylthiazol-5-yl)phenyl)ethyl)pyrrolidine-2-carboxamide] | A (“A” indicates maximum degradation ≥75%) | < 10 | > 10 | > 75 |
| Cc1ncsc1-c1ccc([C@H](C)NC(=O)[C@@H]2C[C@@H](O)CN2C(=O)[C@@H](c2cc(OCCN3[C@@H]4CC[C@H]3CN(C(=O)c3ccc(CCOc5cc(-c6ccccc6O)nnc5N)cc3)C4)no2)C(C)C)cc1 [Compound 221, (2S,4R)-1-[(2R)-2-[3-(2-[3-[4-(2-[[3-amino-6-(2-hydroxyphenyl)pyridazin-4-yl]oxy]ethyl)benzoyl]-3,8-diazabicyclo[3.2.1]octan-8-yl]ethoxy)-1,2-oxazol-5-yl]-3-methylbutanoyl]-4-hydroxy-N-[(1S)-1-[4-(4-methyl-1,3-thiazol-5-yl)phenyl]ethyl]pyrrolidine-2-carboxamide] | A (“A” indicates maximum degradation ≥75%) | > 10 | < 10 | > 75 |
| Cc1ncsc1-c1ccc([C@H](C)NC(=O)[C@@H]2C[C@@H](O)CN2C(=O)[C@@H](c2cc(OCCN3CC(C4CN(C(=O)c5ccc(CCOc6cc(-c7ccccc7O)nnc6N)cc5)C4)C3)no2)C(C)C)cc1 [Compound 222, (2S,4R)-1-((R)-2-(3-(2-(1′-(4-(2-((3-amino-6-(2-hydroxyphenyl)pyridazin-4-yl)oxy)ethyl)benzoyl)-[3,3'-biazetidin]-1-yl)ethoxy)isoxazol-5-yl)-3-methylbutanoyl)-4-hydroxy-N-((S)-1-(4-(4-methylthiazol-5-yl)phenyl)ethyl)pyrrolidine-2-carboxamide] | A (“A” indicates maximum degradation ≥75%) | > 100 | > 100 | > 75 |
| Cc1ncsc1-c1ccc(CNC(=O)[C@@H]2C[C@@H](O)CN2C(=O)[C@@H](NC(=O)CCCCCCCCCCCCCCC(=O)N(C)Cc2ccc(CCOc3cc(-c4ccccc4O)nnc3N)cc2)C(C)(C)C)cc1 [Compound 223, N1-(4-(2-((3-amino-6-(2-hydroxyphenyl)pyridazin-4-yl)oxy)ethyl)benzyl)-N16-((S)-1-((2S,4R)-4-hydroxy-2-((4-(4-methylthiazol-5-yl)benzyl)carbamoyl)pyrrolidin-1-yl)-3,3-dimethyl-1-oxobutan-2-yl)-N1-methylhexadecanediamide] | A (“A” indicates maximum degradation ≥75%) | > 100 | > 1000 | < 50 |
| Cc1ncsc1-c1ccc(CNC(=O)[C@@H]2C[C@@H](O)CN2C(=O)[C@@H](NC(=O)CCN2CC(C3CN(C(=O)c4ccc(CCOc5cc(-c6ccccc6O)nnc5N)cc4)C3)C2)C(C)(C)C)cc1 [Compound 224, (2S,4R)-1-((S)-2-(3-(1′-(4-(2-((3-amino-6-(2-hydroxyphenyl)pyridazin-4-yl)oxy)ethyl)benzoyl)-[3,3′-biazetidin]-1-yl)propanamido)-3,3-dimethylbutanoyl)-4-hydroxy-N-(4-(4-methylthiazol-5-yl)benzyl)pyrrolidine-2-carboxamide] | C (“C” indicates maximum degradation <50%) | > 1000 | > 1000 | < 50 |
| Cc1ncsc1-c1ccc([C@H](C)NC(=O)[C@@H]2C[C@@H](O)CN2C(=O)[C@@H](c2cc(OCCN3CC4CN(C(=O)c5ccc(CCOc6cc(-c7ccccc7O)nnc6N)cc5)CC43)no2)C(C)C)cc1 (stereo partly drawn) [Compound 225, (2S,4R)-1-((2R)-2-(3-(2-(3-(4-(2-((3-amino-6-(2-hydroxyphenyl)pyridazin-4-yl)oxy)ethyl)benzoyl)-3,6-diazabicyclo[3.2.0]heptan-6-yl)ethoxy)isoxazol-5-yl)-3-methylbutanoyl)-4-hydroxy-N-((S)-1-(4-(4-methylthiazol-5-yl)phenyl)ethyl)pyrrolidine-2-carboxamide] | A (“A” indicates maximum degradation ≥75%) | > 100 | > 100 | > 75 |
| Cc1ncsc1-c1ccc(CNC(=O)[C@@H]2C[C@@H](O)CN2C(=O)[C@@H](NC(=O)CCN2C[C@H]3CC[C@@H](C2)N3C(=O)c2ccc(CCOc3cc(-c4ccccc4O)nnc3N)cc2)C(C)(C)C)cc1 [Compound 226, (2S,4R)-1-((2S)-2-(3-(8-(4-(2-((3-amino-6-(2-hydroxyphenyl)pyridazin-4-yl)oxy)ethyl)benzoyl)-3,8-diazabicyclo[3.2.1]octan-3-yl)propanamido)-3,3-dimethylbutanoyl)-4-hydroxy-N-(4-(4-methylthiazol-5-yl)benzyl)pyrrolidine-2-carboxamide] | B (“B” indicates maximum degradation ≥50%) | > 1000 | > 1000 | < 50 |
| Cc1ncsc1-c1ccc([C@H](C)NC(=O)[C@@H]2C[C@@H](O)CN2C(=O)[C@@H](NC(=O)CCCCCCCCCCCCCCCC(=O)N(C)Cc2ccc(CCOc3cc(-c4ccccc4O)nnc3N)cc2)C(C)(C)C)cc1 [Compound 227, N1-(4-(2-((3-amino-6-(2-hydroxyphenyl)pyridazin-4-yl)oxy)ethyl)benzyl)-N17-((S)-1-((2S,4R)-4-hydroxy-2-(((S)-1-(4-(4-methylthiazol-5-yl)phenyl)ethyl)carbamoyl)pyrrolidin-1-yl)-3,3-dimethyl-1-oxobutan-2-yl)-N1-methylheptadecanediamide] | A (“A” indicates maximum degradation ≥75%) | > 10 | > 100 | > 75 |
| Cc1ncsc1-c1ccc(CNC(=O)[C@@H]2C[C@@H](O)CN2C(=O)[C@@H](NC(=O)CCCCCCCCCCCCCCCC(=O)N(C)Cc2ccc(CCOc3cc(-c4ccccc4O)nnc3N)cc2)C(C)(C)C)cc1 [Compound 228, N1-(4-(2-((3-amino-6-(2-hydroxyphenyl)pyridazin-4-yl)oxy)ethyl)benzyl)-N17-((S)-1-((2S,4R)-4-hydroxy-2-((4-(4-methylthiazol-5-yl)benzyl)carbamoyl)pyrrolidin-1-yl)-3,3-dimethyl-1-oxobutan-2-yl)-N1-methylheptadecanediamide] | A (“A” indicates maximum degradation ≥75%) | > 100 | > 100 | > 75 |
| Cc1ncsc1-c1ccc([C@H](C)NC(=O)[C@@H]2C[C@@H](O)CN2C(=O)[C@@H](c2cc(OCCNCCCCCCC(=O)NCc3ccc(CCOc4cc(-c5ccccc5O)nnc4N)cc3)no2)C(C)C)cc1 [Compound 229, (2S,4R)-1-((R)-2-(3-(2-((7-((4-(2-((3-amino-6-(2-hydroxyphenyl)pyridazin-4-yl)oxy)ethyl)benzyl)amino)-7-oxoheptyl)amino)ethoxy)isoxazol-5-yl)-3-methylbutanoyl)-4-hydroxy-N-((S)-1-(4-(4-methylthiazol-5-yl)phenyl)ethyl)pyrrolidine-2-carboxamide] | B (“B” indicates maximum degradation ≥50%) | > 1000 | > 1000 | < 50 |
| Cc1ncsc1-c1ccc([C@H](C)NC(=O)[C@@H]2C[C@@H](O)CN2C(=O)[C@@H](c2cc(OCCNCCC(=O)NCc3ccc(CCOc4cc(-c5ccccc5O)nnc4N)cc3)no2)C(C)C)cc1 [Compound 230, (2S,4R)-1-((R)-2-(3-(2-((3-((4-(2-((3-amino-6-(2-hydroxyphenyl)pyridazin-4-yl)oxy)ethyl)benzyl)amino)-3-oxopropyl)amino)ethoxy)isoxazol-5-yl)-3-methylbutanoyl)-4-hydroxy-N-((S)-1-(4-(4-methylthiazol-5-yl)phenyl)ethyl)pyrrolidine-2-carboxamide] | A (“A” indicates maximum degradation ≥75%) | > 100 | > 1000 | > 75 |
| Cc1ncsc1-c1ccc(CNC(=O)[C@@H]2C[C@@H](O)CN2C(=O)[C@@H](NC(=O)CCN2CC3CN(C(=O)c4ccc(CCOc5cc(-c6ccccc6O)nnc5N)cc4)CC32)C(C)(C)C)cc1 (stereo partly drawn) [Compound 231, (2S,4R)-1-((2S)-2-(3-(3-(4-(2-((3-amino-6-(2-hydroxyphenyl)pyridazin-4-yl)oxy)ethyl)benzoyl)-3,6-diazabicyclo[3.2.0]heptan-6-yl)propanamido)-3,3-dimethylbutanoyl)-4-hydroxy-N-(4-(4-methylthiazol-5-yl)benzyl)pyrrolidine-2-carboxamide] | C (“C” indicates maximum degradation <50%) | > 1000 | > 1000 | < 50 |
| Cc1ncsc1-c1ccc(CNC(=O)[C@@H]2C[C@@H](O)CN2C(=O)[C@@H](NC(=O)CCN2CCN(CCOc3cc(N4[C@@H]5CC[C@H]4CN(c4cc(-c6ccccc6O)nnc4N)C5)ccn3)CC2)C(C)(C)C)cc1 [Compound 232, (2S,4R)-1-((2S)-2-(3-(4-(2-((4-(3-(3-amino-6-(2-hydroxyphenyl)pyridazin-4-yl)-3,8-diazabicyclo[3.2.1]octan-8-yl)pyridin-2-yl)oxy)ethyl)piperazin-1-yl)propanamido)-3,3-dimethylbutanoyl)-4-hydroxy-N-(4-(4-methylthiazol-5-yl)benzyl)pyrrolidine-2-carboxamide] | A (“A” indicates maximum degradation ≥75%) | > 100 | > 1000 | < 50 |
